In one assay the target is T1, hM4 receptors (Homo sapiens, UniProt P08173).
T1 construct: expressed in transfected cells; host or cells: CHO cells
T1 sequence (P08173 1-479): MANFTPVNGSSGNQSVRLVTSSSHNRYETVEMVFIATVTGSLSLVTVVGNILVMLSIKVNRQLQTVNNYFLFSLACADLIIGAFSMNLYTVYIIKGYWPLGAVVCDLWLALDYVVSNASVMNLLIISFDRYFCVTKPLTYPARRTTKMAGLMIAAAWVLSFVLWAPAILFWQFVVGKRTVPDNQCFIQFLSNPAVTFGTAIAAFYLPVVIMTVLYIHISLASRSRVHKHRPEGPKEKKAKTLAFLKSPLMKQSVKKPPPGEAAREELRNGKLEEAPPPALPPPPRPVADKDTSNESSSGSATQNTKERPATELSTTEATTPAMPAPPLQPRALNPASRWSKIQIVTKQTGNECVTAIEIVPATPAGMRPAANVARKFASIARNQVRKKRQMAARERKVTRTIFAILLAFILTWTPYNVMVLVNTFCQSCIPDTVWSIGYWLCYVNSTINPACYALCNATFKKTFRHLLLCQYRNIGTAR
As to the kind of experiment: Human M4 PAM pERK assay. The class given is cell-based. The following applies: CHO cells expressing hM4; EC20 of acetylcholine (10 nM final); TR-FRET. As for the experimental part:
(§1) Chinese hamster ovary (CHO) cells expressing either hM4 or rM4 receptors were frozen in assay ready vials (5×10^6 cells/vial) after bulking-up in culture. The day before an assay, vial(s) were thawed and cells seeded in 384 well white proxiplates at 1000/well for hM4 cells and at 2000/well for rM4 cells, in 10 μL of growth media (Hams/F12 with glutamax and 10% FCS) and incubated overnight at 37° C./5% CO2.
(§2) On the following morning, the growth media was removed by ‘flicking out’ over a bin, patting the inverted plate onto tissue, and then replacing with 10 μL of wash media (Hams/F12 with glutamax and 8 mM HEPES, NB: serum free). Then, the wash media was removed in the same way and replaced with 8 μL/well of the serum free media. Plates were then re-incubated for a further 4 hours at 37° C./5% CO2.
(§3) Compounds for testing were solubilized to 10 mM in DMSO and compound addition plates, consisting of ten-point concentration response curves (CRC) in duplicate points (10 μM top concentration, 1/2 log dilution series), were prepared by acoustic dispensing and the compound management group.
(§4) After the 4-hour incubation in serum free media, a 4 μL aliquot of the 3× compound solution containing an EC20 of acetylcholine (10 nM final concentration) was added to the cell plate using a 384 well plate to plate transfer. Then, the plate lid was replaced, and the cells incubated for 5 mins at 37° C./5% CO2. Following this final incubation, all cellular processes were stopped by the addition of 4 μL/well of lysis and blocking buffer and plates were incubated for 30 minutes at RT on an orbital shaker (gentle setting). Then, a final addition of 4 μL/well of antibody detection mix, containing both the Europium-Cryptate (donor) and d2 (acceptor) tagged detection components, was added followed by a further 2-hour incubation at RT, and then the plate was read using a TR-FRET (time resolved fluorescence resonance energy transfer) based protocol.
Background: Time-resolved FRET reads energy transfer from a long-lived donor to a nearby acceptor.

The target in another assay is T2, rM4 receptors (Rattus norvegicus, UniProt P08485).
T2 construct: expressed in transfected cells; host or cells: CHO cells
T2 sequence (P08485 1-478): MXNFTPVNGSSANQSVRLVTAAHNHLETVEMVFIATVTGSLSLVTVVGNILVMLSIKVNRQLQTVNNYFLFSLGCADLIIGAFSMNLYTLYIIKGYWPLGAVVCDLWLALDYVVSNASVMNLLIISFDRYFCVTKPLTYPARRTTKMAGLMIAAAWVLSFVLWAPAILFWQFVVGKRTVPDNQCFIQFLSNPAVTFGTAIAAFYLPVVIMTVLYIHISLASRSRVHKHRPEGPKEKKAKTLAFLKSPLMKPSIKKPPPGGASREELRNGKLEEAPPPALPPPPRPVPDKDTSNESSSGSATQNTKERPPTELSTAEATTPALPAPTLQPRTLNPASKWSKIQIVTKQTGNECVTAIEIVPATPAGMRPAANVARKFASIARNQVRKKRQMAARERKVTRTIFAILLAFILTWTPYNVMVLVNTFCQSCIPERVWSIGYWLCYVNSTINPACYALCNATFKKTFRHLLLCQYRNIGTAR
As to the kind of experiment: Rat M4 PAM pERK assay. The class given is cell-based. The note with it: CHO cells expressing rM4; EC20 of acetylcholine (10 nM final); TR-FRET. As for the experimental part: as §1, §2, §3, §4

For the next assay, the target named is T3, human M4 receptor (Homo sapiens, UniProt P08173).
T3 construct: expressed in transfected cells
T3 sequence (P08173 1-479): T1 sequence (P08173 1-479)
As to the kind of experiment: M4 GTPγS PAM assay. Type of assay: biochemical. The following applies: membranes of CHO-K1 cells stably expressing human M4; EC20 acetylcholine 40 nM; 35S-GTP. As for the experimental part: The M4 GTPγS PAM method was used. Membranes were prepared for GTPgS binding assays from CHO-K1 cells stably expressing human M4 receptor. Briefly, cells were grown in 5-layer cell culture flasks. Cells were washed with 50 mL of PBS and then dissociated with 0.05% trypsin. Dissociated cells were then collected by centrifugation at 650×g for 8 minutes at 4° C. Pellets were washed again in PBS by centrifugation and resuspended in 30 mL of 20 mM HEPES, 10 mM EDTA, pH 7.4. After sitting on ice for 30 min, membranes were collected by centrifugation at 50000×g for 15′ at 4° C., resuspended in 30 mL of 20 mM HEPES, 0.1 mM EDTA, pH 7.4 and collected again by centrifugation. Pellets were then washed twice by centrifugation in 30 mL of 20 mM HEPES, pH 7.4, and stored at −80° C. until the day of the assay. On the day of the assay, pellets were thawed on ice and resuspended in 1 mL of 20 mM HEPES, pH 7.4, 10 mM MgCl2, 100 mM NaCl using dounce homogenization. Membrane protein concentration is determined by BCA protein assay (Promega, Madison, WI) according to Promega guidelines.
On the day of the assay, serial dilutions of test PAM compounds were brought up in assay buffer (20 mM HEPES, 10 mM MgCl2, 100 mM NaCl) at 4× final assay concentration. […] of membrane homogenates (containing […] of membrane protein) were prepared in assay buffer supplemented with GDP at 4× final assay concentration (final assay concentration of GDP is 5 μM for M2 and 0.1 μM for M4) and dispensed into 96 well polypropylene, U-bottom Greiner plates. […] of vehicle or test PAM compound at 4× of final assay concentration diluted in the assay buffer were added to membrane and plates are incubated for 10-15 minutes at room temperature with gentle shaking. Then, […] of EC20 acetylcholine in assay buffer at 4× final assay concentration was added to assay plates (EC20 final assay concentrations was 40 nM for human M4).
Plates were then incubated, with shaking, for an additional 10-15 minutes. […] of 0.4 nM 35S-GTP (Perkin Elmer, Waltham, MA) in assay buffer was added to assay mixtures. The binding reaction is left on the shaker for 1 hour at room temperature. Membranes in assay reactions were then transferred to GF/C filter plates (Unifilter, Perkin Elmer) and washed three times using a FilterMate Harvester (Perkin Elmer) with cold assay buffer containing no GDP. Filter plates were then dried at 40° C. overnight followed by the addition of […] of Beta Plate Scintillation liquid. Plates are top and bottom sealed before being read on TopCount scintillation counter (Perkin Elmer, Waltham, MA).

Structures are written as SMILES.

As a reminder, the EC50 is the concentration needed to bring the measured effect to its halfway point. Lower therefore signals a more potent agent. In the case of `COc1nc(C)nc2c1C(C)N(C(=O)CC1CN(c3ccnc(C(F)(F)F)c3)C1)C2` (racemic) [Compound I-51, 1-(4-Methoxy-2,5-dimethyl-5,7-dihydro-6H-pyrrolo[3,4-d]pyrimidin-6-yl)-2-(1-(2-(trifluoromethyl)pyridin-4-yl)azetidin-3-yl)ethan-1-one], the EC50 was 0.1 to 0.5 µM on hM4 receptors, 0.5 to 2 µM at rM4 receptors and 0.1 to 0.5 µM on human M4 receptor.
Turning to `COc1nc2c(c(OC)n1)C(C)N(C(=O)CC1CN(c3ccnc(C(F)(F)F)c3)C1)C2` (racemic) [Compound I-67, 1-(2,4-Dimethoxy-5-methyl-5,7-dihydro-6H-pyrrolo[3,4-d]pyrimidin-6-yl)-2-(1-(2-(trifluoromethyl)pyridin-4-yl)azetidin-3-yl)ethan-1-one], the EC50 at hM4 receptors was 0.1 to 0.5 µM; on rM4 receptors, 0.5 to 2 µM; at human M4 receptor it was at most 0.1 µM.
Regarding `COc1nc(C#N)nc2c1C(C)N(C(=O)CC1CN(c3ncns3)C1)C2` (single isomer, unassigned) [Compound I-4, 6-(2-(1-(1,2,4-Thiadiazol-5-yl)azetidin-3-yl)acetyl)-4-methoxy-5-methyl-6,7-dihydro-5H-pyrrolo[3,4-d]pyrimidine-2-carbonitrile], the 50% effective concentration (EC50) on hM4 receptors, on rM4 receptors and at human M4 receptor was at least 2 µM each time.
Turning to `COc1nc(C#N)nc2c1C(C)N(C(=O)CC1CN(c3ccnc(C(F)(F)F)c3)C1)C2` (single isomer, unassigned) [Compound I-5, 4-Methoxy-5-methyl-6-(2-(1-(2-(trifluoromethyl)pyridin-4-yl)azetidin-3-yl)acetyl)-6,7-dihydro-5H-pyrrolo[3,4-d]pyrimidine-2-carbonitrile], the concentration for a half-maximal effect (EC50) on hM4 receptors, at rM4 receptors and at human M4 receptor was at least 2 µM in each case.
Take `COc1nc(C#N)nc2c1C(C)N(C(=O)CC1CN(c3cccnc3)C1)C2` (single isomer, unassigned) [Compound I-7, 4-Methoxy-5-methyl-6-(2-(1-(pyridin-3-yl)azetidin-3-yl)acetyl)-6,7-dihydro-5H-pyrrolo[3,4-d]pyrimidine-2-carbonitrile]: the EC50 on hM4 receptors, at rM4 receptors and on human M4 receptor was at least 2 µM each time.
Take `COc1nc(C#N)nc2c1C(C)N(C(=O)CC1CN(c3cccnc3)C1)C2` (single isomer, unassigned) [Compound I-8, 4-Methoxy-5-methyl-6-(2-(1-(pyridin-3-yl)azetidin-3-yl)acetyl)-6,7-dihydro-5H-pyrrolo[3,4-d]pyrimidine-2-carbonitrile]: the figures for the EC50 at hM4 receptors, on rM4 receptors and on human M4 receptor were at most 0.1 µM, 0.1 to 0.5 µM and 0.5 to 2 µM, respectively.
For the compound `COc1nc(C#N)nc2c1C(C)N(C(=O)CC1CN(c3ccnc(C4CC4)c3)C1)C2` (single isomer, unassigned) [Compound I-11, 6-(2-(1-(2-Cyclopropylpyridin-4-yl)azetidin-3-yl)acetyl)-4-methoxy-5-methyl-6,7-dihydro-5H-pyrrolo[3,4-d]pyrimidine-2-carbonitrile], the EC50 at hM4 receptors, at rM4 receptors and at human M4 receptor was at least 2 µM each time.
Take `COc1nc(C#N)nc2c1C(C)N(C(=O)CC1CN(c3ccnc(C4CC4)c3)C1)C2` (single isomer, unassigned) [Compound I-12, 6-(2-(1-(2-Cyclopropylpyridin-4-yl)azetidin-3-yl)acetyl)-4-methoxy-5-methyl-6,7-dihydro-5H-pyrrolo[3,4-d]pyrimidine-2-carbonitrile]: the EC50 on hM4 receptors is at most 0.1 µM; on rM4 receptors, 0.5 to 2 µM; at human M4 receptor, at most 0.1 µM.
Turning to `COc1nc(C#N)nc2c1C(C)N(C(=O)CC1CN(c3ccnc(OC4CC4)c3)C1)C2` (single isomer, unassigned) [Compound I-13, 6-(2-(1-(2-Cyclopropoxypyridin-4-yl)azetidin-3-yl)acetyl)-4-methoxy-5-methyl-6,7-dihydro-5H-pyrrolo[3,4-d]pyrimidine-2-carbonitrile], the EC50 on hM4 receptors was at least 2 µM; at rM4 receptors, at least 2 µM; on human M4 receptor, 0.5 to 2 µM.
Regarding `COc1nc(C#N)nc2c1C(C)N(C(=O)CC1CN(c3ccnc(OC4CC4)c3)C1)C2` (single isomer, unassigned) [Compound I-14, 6-(2-(1-(2-Cyclopropoxypyridin-4-yl)azetidin-3-yl)acetyl)-4-methoxy-5-methyl-6,7-dihydro-5H-pyrrolo[3,4-d]pyrimidine-2-carbonitrile], the 50% effective concentration (EC50) on hM4 receptors is at most 0.1 µM; on rM4 receptors, 0.5 to 2 µM; at human M4 receptor it was at most 0.1 µM.
Regarding `COc1nc(C)nc2c1CN(C(=O)CC1(F)CN(c3ccnc(C(F)(F)F)c3)C1)C2` [Compound I-42, 2-(3-Fluoro-1-(2-(trifluoromethyl)pyridin-4-yl)azetidin-3-yl)-1-(4-methoxy-2-methyl-5,7-dihydro-6H-pyrrolo[3,4-d]pyrimidin-6-yl)ethan-1-one], the EC50 on hM4 receptors and on human M4 receptor was at least 2 µM in each case.
With `Cc1nc2c(c(OC3CC3)n1)CN(C(=O)CC1CN(c3ccnc(C(F)(F)F)c3)C1)C2` [Compound I-49, 1-(4-Cyclopropoxy-2-methyl-5,7-dihydro-6H-pyrrolo[3,4-d]pyrimidin-6-yl)-2-(1-(2-(trifluoromethyl)pyridin-4-yl)azetidin-3-yl)ethan-1-one], the concentration for a half-maximal effect (EC50) at hM4 receptors and at human M4 receptor was at least 2 µM each time.
